Measured values from patent US9924716B2, “Molecules having pesticidal utility, and intermediates, compositions, and processes, related thereto” (Dow AgroSciences LLC, priority 2016, dated 2018).

Key:
Format in all cases: in vivo
[1] = tested on: Green Peach Aphid (Myzus persicae, MYZUPE); experiment: Bioassay on Green Peach Aphid (GPA), foliar spray on cabbage seedlings; conditions: Table ABC Biological Results
Description: Certain molecules disclosed in this document were tested against GPA using procedures described in the following example. In the reporting of the results, the “GPA & YFM Rating Table” was used (See Table Section). Cabbage seedlings grown in 3-inch pots, with 2-3 small (3-5 cm) true leaves, were used as test substrate. The seedlings were infested with 20-50 GPA (wingless adult and nymph stages) one day prior to chemical application. Four pots with individual seedlings were used for each treatment. Test molecules (2 mg) were dissolved in 2 mL of acetone/methanol (1:1) solvent, forming stock solutions of 1000 ppm test molecule. The stock solutions were diluted 5× with 0.025% Tween 20 in water to obtain the solution at 200 ppm test molecule. A hand-held aspirator-type sprayer was used for spraying a solution to both sides of […] leaves until runoff. Reference plants (solvent check) were sprayed with the diluent only containing 20% by volume of acetone/methanol (1:1) solvent. Treated plants were held in a holding room for three days at approximately 25° C. and ambient relative humidity (RH) prior to grading. […] Percent Control was measured by using Abbott's correction formula (W. S. Abbott, “A Method of Computing the Effectiveness of an Insecticide” J. Econ. Entomol. 18 (1925), pp. 265-267) as follows. […]

[2] = tested on: Cabbage Looper (Trichoplusia ni, TRIPNI) second instar larvae; experiment: Bioassay on Cabbage Looper (CL), 128-well diet tray assay; conditions: Cabbage Looper, Table ABC Biological Results, read-out: CL rating
Procedure, shortened: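 Second instar larvae (1–5 per well) on artificial diet surface-treated with 50 μg/cm² compound in 90:10 acetone-water, eight wells per compound. Held 5–7 days at 25 °C, 14:10 light-dark; percent mortality averaged across wells.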

[3] = tested on: Yellow Fever Mosquito (Aedes aegypti, AEDSAE) larvae; experiment: Bioassay on Yellow Fever Mosquito (YFM), 96-well plate larval assay; conditions: Table ABC Biological Results
Description: Certain molecules disclosed in this document were tested against YFM using procedures described in the following paragraph. In the reporting of the results, the “GPA & YFM Rating Table” was used (See Table Section).
Master plates containing 400 μg of a molecule dissolved in 100 μL of dimethyl sulfoxide (DMSO) (equivalent to a 4000 ppm solution) are used. A master plate of assembled molecules contains 15 μL per well. To this plate, 135 μL of a 90:10 water:acetone mixture is added to each well. A robot (Biomek® NXP Laboratory Automation Workstation) is programmed to dispense 15 μL aspirations from the master plate into an empty 96-well shallow plate (“daughter” plate). There are 6 reps (“daughter” plates) created per master. The created daughter plates are then immediately infested with YFM larvae.
The day before plates are to be treated, mosquito eggs are placed in Millipore water containing liver powder to begin hatching (4 g. into 400 mL). After the daughter plates are created using the robot, they are infested with 220 μL of the liver powder/larval mosquito mixture (about 1 day-old larvae). After plates are infested with mosquito larvae, a non-evaporative lid is used to cover the plate to reduce drying. Plates are held at room temperature for 3 days prior to grading. After 3 days, each well is observed and scored based on mortality. The results are indicated in the table entitled “Table ABC: Biological Results” (See Table Section).

[4] = tested on: Beet Armyworm (Spodoptera exigua, LAPHEG) second instar larvae; experiment: Bioassay on Beet Armyworm (BAW), 128-well diet tray assay; conditions: Beet Armyworm, Table ABC Biological Results, read-out: BAW rating
Procedure, shortened: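 Second-instar larvae, one to five per well, on artificial diet surface-treated with 50 μg/cm^2 compound in acetone-water, dried; eight wells per compound. Held 25 °C, 14:10 light-dark, five to seven days; percent mortality averaged over wells.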

C[C@H](NC(=O)CCC(F)(F)F)NC(=O)c1ccc(/C(F)=C/C(c2cc(Cl)c(F)c(Cl)c2)C(F)(F)F)cc1C(F)(F)F (stereo partly drawn) [F17, 4-((Z)-3-(3,5-Dichloro-4-fluorophenyl)-1,4,4,4-tetrafluorobut-1-en-1-yl)-N—((R)-1-(4,4,4-trifluorobutanamido)ethyl)-2-(trifluoromethyl)benzamide]
GPA rating [1]: B (More than 0-Less than 80) | pest or weed control at 50 µg/cm2 [2]: 50 to 100% | YFM rating [3]: A (80-100) | pest or weed control at 50 µg/cm2 [4]: 50 to 100%
